According to patent US10588316B2 (priority 2015, dated 2020):

Experiments:
[1] = test system: Fusarium asiaticum; test: microbe, parasite or virus in culture; format: cell-based; conditions: F.a sensitive strains
[2] = test system: Fusarium graminearum; test: microbe, parasite or virus in culture; format: cell-based; conditions: F.g sensitive strains

**Q.** What does the source list for `CCOC(=O)C(C#N)=C(N)c1ccccc1` [phenamacril]?
**A.** Median Effective Concentration (EC50) for Growth Inhibition [1]: 0.165 mg/L; Median Effective Concentration (EC50) for Growth Inhibition [2]: 0.165 mg/L
